Data published in US20230148184A1, “COMPOUNDS AND METHODS FOR MODULATING SPLICING” (REMIX THERAPEUTICS INC., priority 2020, published 2023).

Experiments:
Type in all cases: cell-based
[1] = tested on: Target C CJ mRNA; test: Gene panel canonical junction qPCR assay, Target C; settings: decrease in CJ mRNA levels, RT-qPCR
Description: (§1) Compounds described herein were used to modulate RNA transcript abundance in cells. The expression of a target mRNA was measured by detecting the formation of an exon-exon junction in the canonical transcript (CJ). A compound mediated exon-inclusion event was detected by observing an increase in formation of a new junction with an alternative exon (AJ). Real-time qPCR assays were used to detect these splicing switches and interrogate the potency of various compounds towards different target genes. A high-throughput real time quantitative PCR (RT-qPCR) assay was developed to measure these two isoforms of the mRNA (CJ and AJ) for an exemplary gene, HTT, together with a control housekeeping gene, GAPDH or GUSB or PPIA, used for normalization. Briefly, the A673 or K562 cell line was treated with various compounds described herein (e.g., compounds of Formula (I)). After treatment, the levels of the HTT mRNA targets were determined from each sample of cell lysate by cDNA synthesis followed by qPCR.
(§2) The A673 cell line was cultured in DMEM with 10% FBS. Cells were diluted with full growth media and plated in a 96-well plate (15,000 cells in 100 ul media per well). The plate was incubated at 37° C. with 5% CO2 for 24 hours to allow cells to adhere. An 11-point 3-fold serial dilution of the compounds was made in DMSO then diluted in media in an intermediate plate. Compounds were transferred from the intermediate plate to the cell plate with the top dose at a final concentration of 10 uM in the well. Final DMSO concentration was kept at or below 0.25%. The cell plate was returned to the incubator at 37° C. with 5% CO2 for an additional 24 hours.
(§3) The K562 cell line was cultured in IMDM with 10% FBS. For K562, cells were diluted with full growth media and plated in either a 96-well plate (50,000 cells in 50 uL media per well) or a 384-well plate (8,000-40,000 cells in 45 uL media per well). An 11-point 3-fold serial dilution of the compounds were made in DMSO then diluted in media in an intermediate plate. Compound was transferred from the intermediate plate to the cell plate with the top dose at a final concentration of 10 uM in the well. Final DMSO concentration was kept at or below 0.25%. Final volume was 100 uL for 96-well plate and 50 uL for 384-well plate. The cell plate was then placed in an incubator at 37° C. with 5% CO2 for 24 hours.
(§4) The cells were then gently washed with 50 uL-100 uL cold PBS before proceeding to addition of lysis buffer. 30 uL-50 uL of room temperature lysis buffer with DNAse I (and optionally RNAsin) was added to each well. Cells were shaken/mixed thoroughly at room temperature for 5-10 minutes for lysis to take place and then 3 uL-5 uL of room temperature stop solution was added and wells were shaken/mixed again. After 2-5 minutes, the cell lysate plate was transferred to ice for RT-qPCR reaction setup. The lysates could also be frozen at −80° C. for later use.
(§5) In some cases, a direct lysis buffer was used. An appropriate volume of 3× lysis buffer (10 mM Tris, 150 mM NaCl, 1.5%-2.5% Igepal and 0.1-1 U/uL RNAsin, pH 7.4) was directly added to either K562 or A673 cells in media and mixed by pipetting 3 times. The plates were then incubated at room temperature with shaking/rocking for 20-50 minutes to allow for lysis to take place. After this time, the cell lysate plate was transferred to ice to set up for the RT-qPCR reactions. The lysates could also be frozen at −80° C. for later use.
(§6) To set up 10 uL RT-qPCR reactions, cell lysates were transferred to 384-well qPCR plates containing the master mix according to the table below. The plates were sealed, gently vortexed, and spun down before the run. The volumes were adjusted accordingly in some instances where the reaction was carried in 20 uL. The table below summarizes the components of the RT-qPCR reactions:
(§7) The RT-qPCR reaction was performed using a QuantStudio (ThermoFisher) under the following fast cycling conditions. […]

[2] = tested on: SMN2 CJ mRNA; test: Gene panel canonical junction qPCR assay, SMN2; settings: decrease in CJ mRNA levels, RT-qPCR
Description: as §1, §2, §3, §4, §5, §6, §7

[3] = tested on: HTT CJ mRNA; test: Gene panel canonical junction qPCR assay, HTT; settings: decrease in CJ mRNA levels, RT-qPCR
Description: as §1, §2, §3, §4, §5, §6, §7

[4] = tested on: HTT mRNA; test: RT-qPCR splicing assay for HTT mRNA isoforms (canonical junction CJ and alternative junction AJ); settings: A673 or K562 cell line, 24 hours compound treatment; for IC50: decrease in CJ mRNA; for AC50: increase in AJ mRNA
Description: as §1
Cells-to-CT 1-step kit: ThermoFisher A25602, Cells-to-CT lysis reagent: ThermoFisher 4391851C, TaqMan™ Fast Virus 1-Step Master Mix: ThermoFisher 4444436 GAPDH: VIC-PL, ThermoFisher 4326317E (Assay: Hs99999905_m1)—used for K562/suspension cell lines GUSB: VIC-PL, ThermoFisher 4326320E (Assay: Hs99999908_m1)—used for K562/suspension cell lines PPIA: VIC-PL, ThermoFisher 4326316E (Assay: Hs99999904_m1)—used for A673/adherent cell lines
as §2, §3, §4
as §5, with “use. […]” for “use.”

Structure (SMILES)	IC50 [1]	IC50 [2]	IC50 [3]	IC50 [4]	AC50 [4]
CCN(c1ccc2c(n1)OCc1cc(-n3cccn3)ccc1-2)[C@@H]1C[C@H]2CCC[C@@H](C1)N2 [Compound 195]	1 to 10 µM	0.1 to 1 µM	0.1 to 1 µM		
CN(c1ccc2c(c1)COc1cc(-n3cccn3)ccc1-2)C1CC(C)(C)NC(C)(C)C1 [Compound 117, N,2,2,6,6-pentamethyl-N-[3-(pyrazol-1-yl)-6H-benzo[c]chromen-8-yl]piperidin-4-amine]		> 10 µM	> 10 µM	> 10 µM	> 10 µM
CN(c1ccc2c(n1)CCOc1cc(-n3cccn3)ccc1-2)[C@@H]1C[C@H]2CC[C@@H](C1)N2 [Compound 128, N-[(1R,3S,5S)-8-azabicyclo[3.2.1]octan-3-yl]-N-methyl-13-(pyrazol-1-yl)-10-oxa-6-azatricyclo[9.4.0.0^[2,7]]pentadeca-1(11),2(7),3,5,12,14-hexaen-5-amine]	> 10 µM		> 10 µM	> 10 µM	> 10 µM
CN(c1ccc2c(n1)COc1cc(-n3cccn3)ccc1-2)[C@@H]1C[C@H]2CC[C@@H](C1)N2 [Compound 109]				0.1 to 1 µM	0.1 to 1 µM
CC1(C)CC(Nc2ccc3c(c2)COc2cc(-n4cccn4)ccc2-3)CC(C)(C)N1 [Compound 118, 2,2,6,6-tetramethyl-N-[3-(pyrazol-1-yl)-6H-benzo[c]chromen-8-yl]piperidin-4-amine]		> 10 µM	> 10 µM	> 10 µM	> 10 µM
CN(c1ccc2c(c1)CCOc1cc(-n3cccn3)ccc1-2)[C@@H]1C[C@H]2CC[C@@H](C1)N2 [Compound 138, (1R,3S,5S)—N-methyl-N-[5-(pyrazol-1-yl)-8-oxatricyclo[9.4.0.0^[2,7]]pentadeca-1(11),2(7), 3,5,12,14-hexaen-13-yl]-8-azabicyclo [3.2.1] octan-3-amine]	1 to 10 µM		1 to 10 µM	1 to 10 µM	1 to 10 µM
CN(c1ccc2c(n1)CCOc1cc(-c3cn[nH]c3)ccc1-2)C1CC(C)(C)NC(C)(C)C1 [Compound 114, N-methyl-13-(1H-pyrazol-4-yl)-N-(2,2,6,6-tetramethylpiperidin-4-yl)-10-oxa-6-azatricyclo[9.4.0.0^[2,7]]pentadeca-1(11),2(7),3,5,12,14-hexaen-5-amine]	< 0.1 µM		0.1 to 1 µM	0.1 to 1 µM	< 0.1 µM
c1cc2c(cc1-c1cn[nH]c1)OCCc1nc(N[C@@H]3C[C@H]4CC[C@@H](C3)N4)ccc1-2 [Compound 140, N-[(1R,3S,5S)-8-azabicyclo[3.2.1]octan-3-yl]-13-(1H-pyrazol-4-yl)-10-oxa-6-azatricyclo[9.4.0.0^[2,7]]pentadeca-1(11),2(7),3,5,12,14-hexaen-5-amine]		> 10 µM	> 10 µM	> 10 µM	> 10 µM
CN(c1ccc2c(c1)CCOc1cc(-c3cn[nH]c3)ccc1-2)[C@@H]1C[C@H]2CC[C@@H](C1)N2 [Compound 112]	> 10 µM				
CC1(C)CC(Nc2ccc3c(n2)CCOc2cc(-c4cn[nH]c4)ccc2-3)CC(C)(C)N1 [Compound 141, 13-(1H-pyrazol-4-yl)-N-(2,2,6,6-tetramethylpiperidin-4-yl)-10-oxa-6-azatricyclo[9.4.0.0^[2,7]]pentadeca-1(11),2(7),3,5,12,14-hexaen-5-amine]	1 to 10 µM		> 10 µM	> 10 µM	> 10 µM
c1cnn(-c2ccc3c(c2)COc2nc(N(C4CC4)[C@@H]4C[C@H]5CCC[C@@H](C4)N5)ccc2-3)c1 [Compound 203]				1 to 10 µM	1 to 10 µM
CN(c1ccc2c(n1)CCOc1cc(-c3cn[nH]c3)ccc1-2)[C@@H]1C[C@H]2CC[C@@H](C1)N2 [Compound 127, N-[(1R,3S,5S)-8-azabicyclo[3.2.1]octan-3-yl]-N-methyl-13-(1H-pyrazol-4-yl)-10-oxa-6-azatricyclo[9.4.0.0^[2,7]]pentadeca-1(11),2(7),3,5,12,14-hexaen-5-amine]		> 10 µM	> 10 µM	> 10 µM	> 10 µM
CN(c1ccc2c(c1)OCc1cc(-c3cn[nH]c3)ccc1-2)[C@@H]1C[C@H]2CC[C@@H](C1)N2 [Compound 104, (1R,3S,5S)—N-Methyl-N-[8-(1H-pyrazol-4-yl)-6H-benzo[c]chromen-3-yl]-8-azabicyclo[3.2.1]octan-3-amine]	> 10 µM		> 10 µM	> 10 µM	> 10 µM
CC1(C)CC(N(c2ccc3c(n2)OCc2cc(-n4cccn4)ccc2-3)C2CC2)CC(C)(C)N1 [Compound 204]				1 to 10 µM	> 10 µM
c1cnn(-c2ccc3c(c2)OCc2cc(N[C@@H]4C[C@H]5CC[C@@H](C4)N5)ccc2-3)c1 [Compound 119]	1 to 10 µM		> 10 µM	> 10 µM	> 10 µM
Cc1cnc(-c2ccc3c(c2)COc2nc(N(C)[C@@H]4C[C@H]5CC[C@@H](C4)N5)ccc2-3)o1 [Compound 206]				0.1 to 1 µM	0.1 to 1 µM
C[C@H]1C[C@H](N(C)c2ccc3c(c2)OCc2cc(-c4cn[nH]c4)ccc2-3)CCN1 [Compound 102, (2S,4R)—N,2-dimethyl-N-[8-(1H-pyrazol-4-yl)-6H-benzo[c]chromen-3-yl]piperidin-4-amine]	> 10 µM		> 10 µM	> 10 µM	> 10 µM
C[C@@H]1C[C@H](N(C)c2ccc3c(c2)OCc2cc(-c4cn[nH]c4)ccc2-3)CCN1 [Compound 101, (2R,4R)—N,2-dimethyl-N-[8-(1H-pyrazol-4-yl)-6H-benzo[c]chromen-3-yl] piperidin-4-amine]	> 10 µM				> 10 µM
CN(c1ccc2c(c1)COc1cc(-n3cccn3)ccc1-2)[C@@H]1C[C@H]2CC[C@@H](C1)N2 [Compound 105]		> 10 µM	> 10 µM	> 10 µM	> 10 µM
c1cc2c(cc1N[C@@H]1C[C@H]3CC[C@@H](C1)N3)CCOc1cc(-c3cn[nH]c3)ccc1-2 [Compound 132, N-[5-(1H-pyrazol-4-yl)-8-oxatricyclo[9.4.0.0^[2,7]]pentadeca-1(11),2(7),3,5,12,14-hexaen-13-yl]-8-azabicyclo [3.2.1] octan-3-amine]	> 10 µM		> 10 µM	> 10 µM	> 10 µM
c1cnn(-c2ccc3c(c2)COc2nc(N(C4CC4)[C@@H]4C[C@H]5CC[C@@H](C4)N5)ccc2-3)c1 [Compound 205]				1 to 10 µM	0.1 to 1 µM
